Here are results for one compound from the NIST ThermoML archive (doi:10.1016/j.jct.2017.03.011).

Series [1] is described as follows: Molar enthalpy of transition or fusion. The note with it: DSC.

Numbers after ± are expanded uncertainties.

Turning to `O=C1COC(=O)CO1` [1,4-dioxane-2,5-dione], for the setting “Crystal 1, DTA”, the Normal melting temperature turned out to be 83.00 ± 2 °C. Moreover, the Triple point temperature (Crystal 2, DSC) was 316.55 ± 2.1 K. The “Molar enthalpy of transition or fusion” value came to 3.28 ± 0.335 kcal/mol in series [1] (Crystal 1) and 0.416 ± 0.0478 kcal/mol in series [1] (Crystal 2).
